According to the NIST ThermoML archive (doi:10.1016/j.jct.2012.01.022):

Test: xn = mol fraction of the nth substance listed
Settings: 101 kPa, Liquid; for speed of sound: Sing-around technique in a fixed-path interferometer; for mass density: Vibrating tube method; for viscosity: Capillary tube (Ostwald / Ubbelohde) method

NCCN [ethane-1,2-diamine] + CCCCCCO
Settings	mass density [kg/m3]	speed of sound [m/s]	viscosity [mPa·s]
293.15 K, x1 = 0.0773	824.126	1338.6	–
293.15 K, x1 = 0.1231	827.205	1348.9	–
293.15 K, x1 = 0.1604	829.772	1358.1	–
293.15 K, x1 = 0.1925	831.826	1365.8	–
293.15 K, x1 = 0.2525	835.69	1381	–
293.15 K, x1 = 0.2907	837.925	1390.2	–
293.15 K, x1 = 0.3942	844.247	1417.8	–
293.15 K, x1 = 0.5086	851.229	1450.5	–
293.15 K, x1 = 0.6059	857.577	1482.3	–
293.15 K, x1 = 0.7125	865.791	1522.6	–
293.15 K, x1 = 0.81	874.361	1569	–
293.15 K, x1 = 0.8583	879.425	1596.2	–
293.15 K, x1 = 0.9028	884.825	1623.9	–
293.15 K, x1 = 0.945	890.109	1652.7	–
298.15 K, x1 = 0.0773	820.463	1321.6	4.258
298.15 K, x1 = 0.1213	–	–	4.169
298.15 K, x1 = 0.1231	823.489	1331.9	–
298.15 K, x1 = 0.1604	826.005	1340.9	4.072
298.15 K, x1 = 0.1925	828.015	1348.6	4
298.15 K, x1 = 0.2525	831.807	1363.7	3.832
298.15 K, x1 = 0.2907	833.999	1372.7	3.72
298.15 K, x1 = 0.3942	840.22	1399.9	3.357
298.15 K, x1 = 0.5086	847.107	1432.2	2.926
298.15 K, x1 = 0.6059	853.36	1463.5	2.528
298.15 K, x1 = 0.7125	861.471	1503.1	2.149
298.15 K, x1 = 0.81	869.926	1548.7	1.851
298.15 K, x1 = 0.8583	874.936	1575.4	1.725
298.15 K, x1 = 0.9028	880.277	1602.8	1.619
298.15 K, x1 = 0.945	885.496	1630.9	1.536
303.15 K, x1 = 0.0773	816.783	1304.6	3.578
303.15 K, x1 = 0.1213	819.755	1314.9	3.551
303.15 K, x1 = 0.1604	822.223	1323.9	3.51
303.15 K, x1 = 0.1925	824.193	1331.5	3.452
303.15 K, x1 = 0.2525	827.911	1346.5	3.324
303.15 K, x1 = 0.2907	830.062	1355.4	3.234
303.15 K, x1 = 0.3942	836.182	1382.2	2.91
303.15 K, x1 = 0.5086	842.967	1413.9	2.537
303.15 K, x1 = 0.6059	849.135	1444.7	2.194
303.15 K, x1 = 0.7125	857.138	1483.7	1.88
303.15 K, x1 = 0.81	865.482	1528.5	1.612
303.15 K, x1 = 0.8583	870.432	1554.7	1.506
303.15 K, x1 = 0.9028	875.713	1581.5	1.428
303.15 K, x1 = 0.945	880.874	1609.2	1.336
308.15 K, x1 = 0.0773	813.087	1287.8	3.066
308.15 K, x1 = 0.1213	816.005	1298.2	3.025
308.15 K, x1 = 0.1604	818.427	1307	2.971
308.15 K, x1 = 0.1925	820.356	1314.6	2.923
308.15 K, x1 = 0.2525	824	1329.3	2.814
308.15 K, x1 = 0.2907	826.113	1338.1	2.737
308.15 K, x1 = 0.3942	832.134	1364.6	2.479
308.15 K, x1 = 0.5086	838.821	1395.8	2.174
308.15 K, x1 = 0.6059	844.903	1426.1	1.892
308.15 K, x1 = 0.7125	852.798	1464.4	1.62
308.15 K, x1 = 0.81	861.03	1508.5	1.404
308.15 K, x1 = 0.8583	865.917	1534.1	1.316
308.15 K, x1 = 0.9028	871.143	1560.6	1.241
308.15 K, x1 = 0.945	876.241	1587.7	1.18
313.15 K, x1 = 0.0773	809.362	1271.1	–
313.15 K, x1 = 0.1213	812.228	1281.6	–
313.15 K, x1 = 0.1604	814.602	1290.4	–
313.15 K, x1 = 0.1925	816.496	1297.9	–
313.15 K, x1 = 0.2525	820.069	1312.4	–
313.15 K, x1 = 0.2907	822.144	1321.1	–
313.15 K, x1 = 0.3942	828.065	1347	–
313.15 K, x1 = 0.5086	834.657	1377.9	–
313.15 K, x1 = 0.6059	840.646	1407.5	–
313.15 K, x1 = 0.7125	848.435	1445.3	–
313.15 K, x1 = 0.81	856.554	1488.5	–
313.15 K, x1 = 0.8583	861.384	1513.6	–
313.15 K, x1 = 0.9028	866.55	1539.7	–
313.15 K, x1 = 0.945	871.587	1566.3	–

NCCN [ethane-1,2-diamine] + CCCCCCCCCCO
Settings	mass density [kg/m3]	speed of sound [m/s]	viscosity [mPa·s]
293.15 K, x1 = 0.0424	831.534	1402.1	–
293.15 K, x1 = 0.1063	834.058	1408.9	–
293.15 K, x1 = 0.1512	835.766	1414.8	–
293.15 K, x1 = 0.1995	837.56	1420.8	–
293.15 K, x1 = 0.2511	839.445	1427.1	–
293.15 K, x1 = 0.2957	841.022	1432.6	–
293.15 K, x1 = 0.3961	844.521	1445.5	–
293.15 K, x1 = 0.4929	848.18	1459.7	–
293.15 K, x1 = 0.609	853.458	1481.8	–
293.15 K, x1 = 0.6962	858.67	1504.6	–
293.15 K, x1 = 0.7975	866.833	1541.1	–
293.15 K, x1 = 0.855	872.943	1570.1	–
293.15 K, x1 = 0.9054	879.622	1602.3	–
293.15 K, x1 = 0.9591	888.704	1648.1	–
298.15 K, x1 = 0.0424	828.092	1384.9	10.96
298.15 K, x1 = 0.1063	830.545	1391.6	10.6
298.15 K, x1 = 0.1512	832.202	1397.5	10.36
298.15 K, x1 = 0.1995	833.938	1403.3	9.921
298.15 K, x1 = 0.2511	835.76	1409.5	9.382
298.15 K, x1 = 0.2957	837.289	1414.9	8.821
298.15 K, x1 = 0.3961	840.693	1427.6	7.355
298.15 K, x1 = 0.4929	844.262	1441.5	6.047
298.15 K, x1 = 0.609	849.415	1463.1	4.514
298.15 K, x1 = 0.6962	854.51	1485.4	3.644
298.15 K, x1 = 0.7975	862.525	1521.3	2.699
298.15 K, x1 = 0.855	868.535	1549.7	2.198
298.15 K, x1 = 0.9054	875.128	1581.4	1.874
298.15 K, x1 = 0.9591	884.107	1626.4	1.598
303.15 K, x1 = 0.0424	824.641	1367.8	9.008
303.15 K, x1 = 0.1063	827.029	1374.7	8.713
303.15 K, x1 = 0.1512	828.635	1380.3	8.442
303.15 K, x1 = 0.1995	830.31	1386.1	8.104
303.15 K, x1 = 0.2511	832.075	1392.1	7.658
303.15 K, x1 = 0.2957	833.56	1397.5	7.229
303.15 K, x1 = 0.3961	836.868	1409.8	6.168
303.15 K, x1 = 0.4929	840.345	1423.5	5.062
303.15 K, x1 = 0.609	845.37	1444.5	3.892
303.15 K, x1 = 0.6962	850.353	1466.5	3.107
303.15 K, x1 = 0.7975	858.212	1501.6	2.343
303.15 K, x1 = 0.855	864.125	1529.5	1.985
303.15 K, x1 = 0.9054	870.631	1560.8	1.66
303.15 K, x1 = 0.9591	879.506	1604.9	1.403
308.15 K, x1 = 0.0424	821.178	1350.9	7.295
308.15 K, x1 = 0.1063	823.508	1358	7.087
308.15 K, x1 = 0.1512	825.064	1363.4	6.852
308.15 K, x1 = 0.1995	826.684	1369.1	6.563
308.15 K, x1 = 0.2511	828.392	1375	6.202
308.15 K, x1 = 0.2957	829.829	1380.3	5.881
308.15 K, x1 = 0.3961	833.045	1392.3	5.028
308.15 K, x1 = 0.4929	836.429	1405.6	4.23
308.15 K, x1 = 0.609	841.323	1426.1	3.288
308.15 K, x1 = 0.6962	846.189	1447.5	2.661
308.15 K, x1 = 0.7975	853.898	1481.9	2.032
308.15 K, x1 = 0.855	859.714	1509.4	1.708
308.15 K, x1 = 0.9054	866.124	1540.1	1.485
308.15 K, x1 = 0.9591	874.895	1583.6	1.238
313.15 K, x1 = 0.0424	817.698	1334.2	–
313.15 K, x1 = 0.1063	819.969	1341.6	–
313.15 K, x1 = 0.1512	821.476	1346.8	–
313.15 K, x1 = 0.1995	823.045	1352.3	–
313.15 K, x1 = 0.2511	824.7	1358.1	–
313.15 K, x1 = 0.2957	826.089	1363.2	–
313.15 K, x1 = 0.3961	829.21	1375	–
313.15 K, x1 = 0.4929	832.502	1387.9	–
313.15 K, x1 = 0.609	837.271	1407.9	–
313.15 K, x1 = 0.6962	842.017	1428.6	–
313.15 K, x1 = 0.7975	849.57	1462.5	–
313.15 K, x1 = 0.855	855.287	1489.4	–
313.15 K, x1 = 0.9054	861.605	1519.8	–
313.15 K, x1 = 0.9591	870.264	1562.4	–
